Where a name gives a salt, the structure may show the parent alone.
The compounds below were run against T1, mGlyT-1b (Mus musculus, UniProt P28571) (assay: Glycine uptake inhibition assay (mGlyT-1b)). Conditions: [3H]-glycine uptake, Flp-in-CHO cells stably transfected with mGlyT1b cDNA, 20 min preincubation at 22° C.
T1 construct: host or cells: Flp-in-CHO
T1 sequence (P28571 1-651 isoform P28571-2): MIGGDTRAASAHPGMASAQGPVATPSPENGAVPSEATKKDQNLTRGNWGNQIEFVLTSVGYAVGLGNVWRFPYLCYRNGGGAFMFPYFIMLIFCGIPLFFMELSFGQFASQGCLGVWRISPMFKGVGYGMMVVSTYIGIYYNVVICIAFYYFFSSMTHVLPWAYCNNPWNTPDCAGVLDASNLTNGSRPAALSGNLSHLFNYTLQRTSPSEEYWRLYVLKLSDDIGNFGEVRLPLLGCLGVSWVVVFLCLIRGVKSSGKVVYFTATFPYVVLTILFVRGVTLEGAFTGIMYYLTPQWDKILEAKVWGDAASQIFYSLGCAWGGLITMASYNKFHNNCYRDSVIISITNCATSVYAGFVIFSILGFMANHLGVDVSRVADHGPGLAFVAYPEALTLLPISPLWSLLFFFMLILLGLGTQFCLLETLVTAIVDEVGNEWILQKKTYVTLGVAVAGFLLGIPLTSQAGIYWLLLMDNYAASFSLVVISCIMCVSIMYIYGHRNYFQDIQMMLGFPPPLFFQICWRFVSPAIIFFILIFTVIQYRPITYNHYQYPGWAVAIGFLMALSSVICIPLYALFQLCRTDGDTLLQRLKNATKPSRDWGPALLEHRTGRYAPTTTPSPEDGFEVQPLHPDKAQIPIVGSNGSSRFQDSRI
Type: cell-based
Description: Nutrient mixture F-12 (Gibco Life-technologies), fetal bovine serum (FBS) 5%, (Gibco life technologies), Penicillin/Streptomycin 1% (Gibco life technologies), Hygromycin 0.6 mg/ml (Gibco life technologies), Glutamine 1 mM Gibco life technologies)
150 mM NaCl, 10 mM Hepes-Tris, pH 7.4, 1 mM CaCl2, 2.5 mM KCl, 2.5 mM MgSO4, 10 mM (+) D-glucose.
Flp-in™-CHO (Invitrogen Cat n° R758-07) cells stably transfected with mGlyT1b cDNA.
Glycine Uptake Inhibition Assay (mGlyT-1b)
On day 1 mammalian cells, (Flp-in™-CHO), transfected with mGlyT-1b cDNA, were plated at the density of 40,000 cells/well in complete F-12 medium, without hygromycin in 96-well culture plates. On day 2, the medium was aspirated and the cells were washed twice with uptake buffer (UB). The cells were then incubated for 20 min at 22° C. with either (i) no potential competitor, (ii) 10 mM non-radioactive glycine, (iii) a concentration of a potential inhibitor. A range of concentrations of the potential inhibitor was used to generate data for calculating the concentration of inhibitor resulting in 50% of the effect (e.g. IC50, the concentration of the competitor inhibiting glycine uptake of 50%). A solution was then immediately added containing [^3H]-glycine 60 nM (11-16 Ci/mmol) and 25 μM non-radioactive glycine. The plates were incubated with gentle shaking and the reaction was stopped by aspiration of the mixture and washing (three times) with ice-cold UB. The cells were lysed with scintillation liquid, shaken 3 hours and the radioactivity in the cells was counted using a scintillation counter.

SMILES	IC50
COc1cc(C(F)(F)F)cc(SC)c1C(=O)NC1(c2cccc(Cl)c2)CCCN(C)C1 (racemic) [Example 45, rac-N-[3-(3-Chloro-phenyl)-1-methyl-piperidin-3-yl]-2-methoxy-6-methylsulfanyl-4-trifluoromethyl-benzamide hydrochloride]	24.5 nM
COc1ccc(C2(NC(=O)c3c(OC)cc(C(F)(F)F)cc3SC)CCCN(C)C2)cc1 (racemic) [Example 46, rac-2-Methoxy-N-[3-(4-methoxy-phenyl)-1-methyl-piperidin-3-yl]-6-methylsulfanyl-4-trifluoromethyl-benzamide]	169 nM
COc1cc(C(F)(F)F)cc(SC)c1C(=O)NC1(c2ccc(F)cn2)CCCN(C)C1 (racemic) [Example 47, rac-N-(5-Fluoro-1′-methyl-1′,4′,5′,6′-tetrahydro-2′H-[2,3′]bipyridinyl-3′-yl)-2-methoxy-6-methylsulfanyl-4-trifluoromethyl-benzamide]	181 nM
COc1cc(C(F)(F)F)cc(SC)c1C(=O)NC1(c2ccccc2)CC(F)CN(C)C1 (racemic) [Example 48, rac-N-(5-Fluoro-1-methyl-3-phenyl-piperidin-3-yl)-2-methoxy-6-methylsulfanyl-4-trifluoromethyl-benzamide]	197 nM
COc1cc(C(F)(F)F)cc(SC)c1C(=O)NC1(c2ccccc2)CC(O)CN(C)C1 (racemic) [Example 51, rac-N-(5-Hydroxy-1-methyl-3-phenyl-piperidin-3-yl)-2-methoxy-6-methylsulfanyl-4-trifluoromethyl-benzamide]	58.2 nM
COc1cc(C(F)(F)F)cc(SC)c1C(=O)NC1(c2ccccc2)CCCN(C(C)C)C1 (racemic) [Example 55, rac-N-(1-Isopropyl-3-phenyl-piperidin-3-yl)-2-methoxy-6-methylsulfanyl-4-trifluoromethyl-benzamide; hydrochloride]	77.7 nM
COc1cc(C(F)(F)F)cc(SC)c1C(=O)NC1(C2CCCCC2)CCCN(C)C1 (racemic) [Example 58, rac-N-(3-Cyclohexyl-1-methyl-piperidin-3-yl)-2-methoxy-6-methylsulfanyl-4-trifluoromethyl-benzamide]	156 nM
CN1CCCC(NC(=O)c2ccc(C(F)(F)F)cc2C2CCC2)(c2ccccc2)C1 (racemic) [Example 66, rac-2-Cyclobutyl-N-(1-methyl-3-phenyl-piperidin-3-yl)-4-trifluoromethyl-benzamide hydrochloride]	243 nM
COc1cc(C(F)(F)F)cc(SC)c1C(=O)NC1(c2ccc(F)cc2F)CCCN(C)C1 (racemic) [Example 67, rac-N-[3-(2,4-Difluoro-phenyl)-1-methyl-piperidin-3-yl]-2-methoxy-6-methylsulfanyl-4-trifluoromethyl-benzamide]	129 nM
COc1cc(C(F)(F)F)cc(SC)c1C(=O)NC1(c2ccccc2F)CCCN(C)C1 (racemic) [Example 68, rac-N-[3-(2-Fluoro-phenyl)-1-methyl-piperidin-3-yl]-2-methoxy-6-methylsulfanyl-4-trifluoromethyl-benzamide]	175 nM
COc1cc(C(F)(F)F)cc(SC)c1C(=O)NC1(c2cc(F)ccc2F)CCCN(C)C1 (racemic) [Example 69, rac-N-[3-(2,5-Difluoro-phenyl)-1-methyl-piperidin-3-yl]-2-methoxy-6-methylsulfanyl-4-trifluoromethyl-benzamide]	117 nM
CC(C)c1cc(C(F)(F)F)ccc1C(=O)NC1(c2ccccc2)CCCN(C)C1 (racemic) [Example 70, rac-2-Isopropyl-N-(1-methyl-3-phenyl-piperidin-3-yl)-4-trifluoromethyl-benzamide hydrochloride]	197 nM
COc1cc(C(F)(F)F)cc(SC)c1C(=O)NC1(c2ccncc2)CCCN(C)C1 (racemic) [Example 71, rac-2-Methoxy-6-methylsulfanyl-N-(1-methyl-1,4,5,6-tetrahydro-2H-[3,4′]bipyridinyl-3-yl)-4-trifluoromethyl-benzamide]	55.9 nM
CCc1cc(C(F)(F)F)ccc1C(=O)NC1(c2ccncc2)CCCN(C)C1 (racemic) [Example 72, rac-2-Ethyl-N-(1-methyl-1,4,5,6-tetrahydro-2H-[3,4′]bipyridinyl-3-yl)-4-trifluoromethyl-benzamide hydrochloride]	36.9 nM
COc1cc(C(F)(F)F)cc(SC)c1C(=O)NC1(c2cccnc2)CCCN(C)C1 (racemic) [Example 73, rac-2-Methoxy-6-methylsulfanyl-N-(1-methyl-1,4,5,6-tetrahydro-2H-[3,3′]bipyridinyl-3-yl)-4-trifluoromethyl-benzamide]	54.4 nM
CCc1cc(C(F)(F)F)ccc1C(=O)NC1(c2cccnc2)CCCN(C)C1 (racemic) [Example 74, rac-2-Ethyl-N-(1-methyl-1,4,5,6-tetrahydro-2H-[3,3′]bipyridinyl-3-yl)-4-trifluoromethyl-benzamide hydrochloride]	123 nM
CO[C@@H]1CN(C)C[C@](NC(=O)c2ccc(C(F)(F)F)cc2C2CC2)(c2ccccc2)C1 (racemic) [Example 76, 2-Cyclopropyl-N-((3RS,5SR)-5-methoxy-1-methyl-3-phenyl-piperidin-3-yl)-4-trifluoromethyl-benzamide]	92.9 nM
CCc1cc(C(F)(F)F)ccc1C(=O)N[C@@]1(c2ccccc2)C[C@H](OC)CN(C)C1 (racemic) [Example 77, 2-Ethyl-N-((3RS,5SR)-5-methoxy-1-methyl-3-phenyl-piperidin-3-yl)-4-trifluoromethyl-benzamide]	88.1 nM
COc1cc(C(F)(F)F)cc(OC)c1C(=O)NC1(c2ccccc2)CCCN(C)C1 (racemic) [Example 80, rac-2,6-Dimethoxy-N-(1-methyl-3-phenyl-piperidin-3-yl)-4-trifluoromethyl-benzamide]	176 nM
C[C@@H]1CN(C)C[C@](NC(=O)c2ccc(C(F)(F)F)cc2C2CC2)(c2ccccc2)C1 (racemic) [Example 82, 2-Cyclopropyl-N-((3RS,5SR)-1,5-dimethyl-3-phenyl-piperidin-3-yl)-4-trifluoromethyl-benzamide hydrochloride]	25.3 nM
CN1CC(C)(C)CC(NC(=O)c2ccc(C(F)(F)F)cc2C2CC2)(c2ccccc2)C1 (racemic) [Example 83, rac-2-Cyclopropyl-4-trifluoromethyl-N-(1,5,5-trimethyl-3-phenyl-piperidin-3-yl)-benzamide]	30 nM
COc1cc(C(F)(F)F)cc(SC)c1C(=O)NC1(c2ccccc2)CCC(C)(C)N(C)C1 (racemic) [Example 84, rac-2-Methoxy-6-methylsulfanyl-4-trifluoromethyl-N-(1,6,6-trimethyl-3-phenyl-piperidin-3-yl)-benzamide hydrochloride]	17.3 nM
COCO[C@@H]1CN(C)C[C@](NC(=O)c2c(OC)cc(C(F)(F)F)cc2SC)(c2ccccc2)C1 (racemic) [Example 86, 2-Methoxy-N-((3RS,5SR)-5-methoxymethoxy-1-methyl-3-phenyl-piperidin-3-yl)-6-methylsulfanyl-4-trifluoromethyl-benzamide]	71.5 nM
COc1cc(C(F)(F)F)cc(SC)c1C(=O)NC1(c2cccc(Br)c2)CCCN(C)C1 (racemic) [Example 87, rac-N-[3-(3-Bromo-phenyl)-1-methyl-piperidin-3-yl]-2-methoxy-6-methylsulfanyl-4-trifluoromethyl-benzamide hydrochloride]	39.6 nM
COc1cc(C(F)(F)F)cc(SC)c1C(=O)NC1(c2ccc(F)cc2Cl)CCCN(C)C1 (racemic) [Example 88, rac-N-[3-(2-Chloro-4-fluoro-phenyl)-1-methyl-piperidin-3-yl]-2-methoxy-6-methylsulfanyl-4-trifluoromethyl-benzamide]	146 nM
COc1cc(C(F)(F)F)cc(SC)c1C(=O)NC1(c2cccc(C(F)(F)F)c2)CCCN(C)C1 (racemic) [Example 89, rac-2-Methoxy-6-methylsulfanyl-N-[1-methyl-3-(3-trifluoromethyl-phenyl)-piperidin-3-yl]-4-trifluoromethyl-benzamide]	107 nM
